According to patent publication US20120083460A1 (SAN EI GEN F.F.I., INC., priority 2009, published 2012):
Several values for one entry are separate records, joined by “and”; a condition that tells them apart may be missing. Identical values can stand only once. Like-named read-outs stand apart in the source and are kept apart here.

Experiments:
[1] = Evaluation of fading suppressing effect, UV Fade Meter irradiation (Experiment Example 4); details: final IQC 0.01% (γ-CD alone 0.14%), drink pH 3.1
Experimental: (§1) Specifically, a colorant-containing acidic drink of the formulation below was prepared. […] The drinks were irradiated with a fluorescent light (BIOTRON LH 300, NK System) or a UV Fade Meter (UV Long-Life Fade Meter FAL-3, Suga Test Instruments Co., Ltd.) for the durations presented in Table 6. Absorbance was measured before and after the irradiation, and the percentage remaining color (%) after the irradiation was calculated. Further, as a control test, a colorant-containing acidic drink was irradiated with the UV Fade Meter or fluorescent light as above without adding anything (no addition), and the percentage remaining color (%) after the irradiation was calculated.

[2] = Evaluation of fading suppressing effect, fluorescent light irradiation (Experiment Example 4); details: final IQC 0.01% (γ-CD alone 0.14%), drink pH 3.1
Experimental: as §1

[3] = Evaluation of the solubility of other flavonoids in water (Experiment Example 2); assay type: physicochemical
Experimental: The solubility (mg/ml) of each composition in water in terms of the flavonoid was then determined according to the method of Experiment Example 1. The solubility (mg/ml) of the flavonoid itself in water was also determined as a control, and the solubility (fold) was calculated from the relative ratio of the two.

[4] = Evaluation of flavor deterioration suppressing effect, sensory evaluation by six panelists (Experiment Example 5); details: drinks of formulations 1 to 7, IQC added as it is, final IQC 0.01%
Experimental: In the same manner, γ-CD (Wacker Chemical) was added to each drink in a final concentration of 0.14% to prepare a drink that contained γ-CD.
The drinks prepared as above were tested under the severity conditions presented in Table 9, and changes in drink flavor after the test were examined by six panelists in a sensory evaluation. Evaluations were made according to the following criteria on the scale of 1 (stress tested drink (blank) without any addition) to 5 (each drink before the test).
Table 9 presents means values of the scored points evaluated by the six panelists.

[5] = Evaluation of preservation stability (presence or absence of deposits) in acid and sugar solution (Experiment Example 3); assay type: physicochemical; design: key: +: the presence of deposits; −: the absence of deposits; ×: no dissolution in the acid and sugar solution; details: 30 days
Experimental: Each solution was hot-packed in a 200-ml PET bottle (93° C.). The drink so prepared was allowed to cool, and placed under 50° C., room temperature (25±2° C.), and low-temperature (5° C.) conditions for 30 days. The presence or absence of deposits was then checked by visual inspection.
The drink so prepared was allowed to cool, and placed under 50° C., room temperature (25±2° C.), and low-temperature (5° C.) conditions for 30 days. The presence or absence of deposits was then observed.
In the table, the symbol “+” means the presence of deposits, and “−” the absence of deposits. The symbol “×” means no dissolution in the acid and sugar solution.

[6] = Evaluation of water solubility with α- and β-cyclodextrins (Reference Experiment Example); assay type: physicochemical; details: water (25° C.), method of Experiment Example 1
[7] = Absorption in the body: IQC metabolites in plasma after oral administration (Experiment Example 6); assay type: in vivo; details: 375 mg IQC equivalent, person n=1
Experimental: After 1, 2, and 3 hours from the administration, bloods were collected using heparin as anti-coagulant from the person, and centrifuged to obtain plasmas.
About 29,000 unit/ml β-glucuronidase (20 μl) dissolved in 0.58 M sodium acetate buffer (pH 4.9) was added to the plasma (180 μl), and the mixture was left unattended at 37° C. for 30 min. After adding 1 M AsA/10 mM sodium metaphosphate (50 μl, in terms of phosphoric acid) and 20 μg/ml diosmetin (9 μl), the mixture was frozen at −80° C., and freeze dried overnight. The freeze dried sample was suspended in MeOH (1 ml), and centrifuged at 15,000 rpm for 10 min. The supernatant was concentrated and dried, and dissolved in MeOH (90 μl). After adding 200 mM HCl (90 μl), the solution was centrifuged at 15,000 rpm for 10 min to collect the supernatant. The IQC metabolites quercetin, isorhamnetin, and tamarixetin in the plasma were then quantified by HPLC under the conditions below.

[8] = Evaluation of IQC composition solubility in water (Experiment Example 1); assay type: physicochemical; details: for Solubility (in terms of isoquercitrin, mg/ml): water, shaken at 25° C. for 40 hours, solution pH 4.7-5.7 (Table 1)
Experimental: The Samples were added until they could not be dissolved further and formed deposits. Each solution was shaken at 25° C. for 40 hours, and centrifuged at 9,000 rpm for 10 min to collect the supernatant. The supernatant was appropriately diluted with a 0.1% phosphoric acid aqueous solution, and absorbance (340 nm) was measured.

[9] = Cochineal colorant, UV fade meter irradiation 6 H
[10] = Elderberry colorant, UV fade meter irradiation 2 H
[11] = Grape juice colorant, UV fade meter irradiation 20 H
[12] = Paprika colorant, UV fade meter irradiation 3 H
[13] = Purple corn colorant, UV fade meter irradiation 4 H
[14] = Purple sweet potato colorant, UV fade meter irradiation 7 H
[15] = Red cabbage colorant, UV fade meter irradiation 8 H
[16] = Safflower yellow colorant, UV fade meter irradiation 4 H
[17] = β-carotene, UV fade meter irradiation 17 H
[18] = Cochineal colorant, fluorescence irradiation 6 D
[19] = Elderberry colorant, fluorescence irradiation 2 D
[20] = Grape juice colorant, fluorescence irradiation 20 D
[21] = Paprika colorant, fluorescence irradiation 1 D
[22] = Purple corn colorant, fluorescence irradiation 1 D
[23] = Purple sweet potato colorant, fluorescence irradiation 8 D
[24] = Red cabbage colorant, fluorescence irradiation 4 D
[25] = Safflower yellow colorant, fluorescence irradiation 4 D
[26] = β-carotene, fluorescence irradiation 6 D

OC[C@H]1O[C@@H]2O[C@H]3[C@H](O)[C@@H](O)[C@@H](O[C@H]4[C@H](O)[C@@H](O)[C@@H](O[C@H]5[C@H](O)[C@@H](O)[C@@H](O[C@H]6[C@H](O)[C@@H](O)[C@@H](O[C@H]7[C@H](O)[C@@H](O)[C@@H](O[C@H]8[C@H](O)[C@@H](O)[C@@H](O[C@H]9[C@H](O)[C@@H](O)[C@@H](O[C@H]1[C@H](O)[C@H]2O)O[C@@H]9CO)O[C@@H]8CO)O[C@@H]7CO)O[C@@H]6CO)O[C@@H]5CO)O[C@@H]4CO)O[C@@H]3CO [γ-CD, γ-cyclodextrin]
percentage remaining color (%) [1, 9]: 80.8%
percentage remaining color (%) [1, 10]: 65.2%
percentage remaining color (%) [1, 11]: 88.7%
percentage remaining color (%) [1, 12]: 37.6%
percentage remaining color (%) [1, 13]: 36.2%
percentage remaining color (%) [1, 14]: 79.4%
percentage remaining color (%) [1, 15]: 25.1%
percentage remaining color (%) [1, 16]: 62.4%
percentage remaining color (%) [1, 17]: 60.5%
percentage remaining color (%) [2, 18]: 71.5%
percentage remaining color (%) [2, 19]: 66.2%
percentage remaining color (%) [2, 20]: 88.1%
percentage remaining color (%) [2, 21]: 90.3%
percentage remaining color (%) [2, 22]: 69.2%
percentage remaining color (%) [2, 23]: 75.6%
percentage remaining color (%) [2, 24]: 54.0%
percentage remaining color (%) [2, 25]: 69.2%
percentage remaining color (%) [2, 26]: 60.6%

O=c1c(O)c(-c2ccc(O)c(O)c2)oc2cc(O)cc(O)c12 [Quercetin, quercetin]
Solubility (fold) (in terms of flavonoids) [3]: 1 fold

C[C@@H]1O[C@@H](O[C@H]2[C@H](Oc3cc(O)c4c(c3)O[C@H](c3ccc(O)cc3)CC4=O)O[C@H](CO)[C@@H](O)[C@@H]2O)[C@H](O)[C@H](O)[C@H]1O [Naringin, naringin]
Solubility (fold) (in terms of flavonoids) [3]: 1 fold

O=c1c(O)c(-c2cc(O)c(O)c(O)c2)oc2cc(O)cc(O)c12 [Myricetin, myricetin]
Solubility (fold) (in terms of flavonoids) [3]: 1 fold

O=c1c(O[C@@H]2O[C@H](CO)[C@@H](O)[C@H](O)[C@H]2O)c(-c2ccc(O)c(O)c2)oc2cc(O)cc(O)c12 [IQC, isoquercitrin]
IQC deposits in the prepared drink [4]: deposits were observed within several hours
presence or absence of deposits ([5]; pH 6, 50° C., flavonoid concentration 0.05%): −
presence or absence of deposits ([5]; pH 6, Refrigerated (5° C.), flavonoid concentration 0.05%): +
presence or absence of deposits ([5]; pH 6, Room temperature, flavonoid concentration 0.05%): +
presence or absence of deposits ([5]; pH 9, 50° C., flavonoid concentration 0.05%): −
presence or absence of deposits ([5]; pH 9, 50° C., flavonoid concentration 0.10%): −
presence or absence of deposits ([5]; pH 9, Refrigerated (5° C.), flavonoid concentration 0.05%): +
presence or absence of deposits ([5]; pH 9, Refrigerated (5° C.), flavonoid concentration 0.10%): +
presence or absence of deposits ([5]; pH 9, Room temperature, flavonoid concentration 0.05%): −
presence or absence of deposits ([5]; pH 9, Room temperature, flavonoid concentration 0.10%): +
percentage remaining color (%) [1, 9]: 91.1%
percentage remaining color (%) [1, 10]: 70.2%
percentage remaining color (%) [1, 11]: 93.1%
percentage remaining color (%) [1, 12]: 55.8%
percentage remaining color (%) [1, 13]: 59.8%
percentage remaining color (%) [1, 14]: 88.0%
percentage remaining color (%) [1, 15]: 50.8%
percentage remaining color (%) [1, 16]: 71.6%
percentage remaining color (%) [1, 17]: 74.2%
percentage remaining color (%) [2, 18]: 75.6%
percentage remaining color (%) [2, 19]: 64.5%
percentage remaining color (%) [2, 20]: 91.1%
percentage remaining color (%) [2, 21]: 91.3%
percentage remaining color (%) [2, 22]: 76.4%
percentage remaining color (%) [2, 23]: 76.9%
percentage remaining color (%) [2, 24]: 60.1%
percentage remaining color (%) [2, 25]: 72.8%
percentage remaining color (%) [2, 26]: 71.2%
Solubility (fold) (in terms of flavonoids) ([3]; Flavonoid:γ-CD = 1:0 (mole ratio), flavonoid itself = reference 1): 1 fold
Solubility (in terms of isoquercitrin, mg/ml) [6]: 0.10 mg/mL
Isorhamnetin in plasma ([7]; blood collection time 0 h): 0 µg/mL
Quercetin in plasma ([7]; blood collection time 0 h): 0.02 µg/mL
Tamarixetin in plasma ([7]; blood collection time 0 h): 0 µg/mL
Total flavonoid (quercetin, isorhamnetin, tamarixetin) in plasma ([7]; blood collection time 0 h): 0.02 µg/mL
Isorhamnetin in plasma ([7]; blood collection time 1 h): 0 µg/mL
Quercetin in plasma ([7]; blood collection time 1 h): 0.01 µg/mL
Tamarixetin in plasma ([7]; blood collection time 1 h): 0 µg/mL
Total flavonoid (quercetin, isorhamnetin, tamarixetin) in plasma ([7]; blood collection time 1 h): 0.01 µg/mL
Isorhamnetin in plasma ([7]; blood collection time 2 h): 0.02 µg/mL
Quercetin in plasma ([7]; blood collection time 2 h): 0.15 µg/mL
Tamarixetin in plasma ([7]; blood collection time 2 h): 0.06 µg/mL
Total flavonoid (quercetin, isorhamnetin, tamarixetin) in plasma ([7]; blood collection time 2 h): 0.2 µg/mL and 0.22 µg/mL
Isorhamnetin in plasma ([7]; blood collection time 3 h): 0.01 µg/mL
Quercetin in plasma ([7]; blood collection time 3 h): 0.15 µg/mL
Tamarixetin in plasma ([7]; blood collection time 3 h): 0.03 µg/mL
Total flavonoid (quercetin, isorhamnetin, tamarixetin) in plasma ([7]; blood collection time 3 h): 0.20 µg/mL
AUC ([7]; total metabolites in plasma, 0-3 h): 0.34 (μg/ml)·hr
upper limit solubility in water ([8]; acidic condition at 25° C.): 0.0102 mass %
Solubility (in terms of isoquercitrin, mg/ml) [8]: 0.1020 mg/mL
Solubility (in terms of isoquercitrin, mg/ml) ([8]; listed as Control): 0.10 mg/mL
Solubility (in terms of isoquercitrin, mg/ml) ([8]; listed as isoquercitrin): 0.102 mg/mL
